Source: patent publication EP0388528B1, “Carboximidamide derivatives” (KIRIN BEER KABUSHIKI KAISHA, priority 1988, dated 1990)
pIC50: −log10 of the molar value.

system: isolated rat aortae; assay: Vasorelaxing effect on the isolated rat aortae (Referential Example 1)-1); conditions: inhibition of contraction induced by 40 mM KCl
Experimental: (§1) The compounds of the present invention were tested for their physiological activities by measuring the tension of isolated rat aortae isometrically.
Thoracic aortae obtained from male Wistar rats (weighing 250-350 g) were cut into ring segments about 3 mm long. The ring preparation was placed in an organ bath filled with 10 ml of Krebs-Ringer solution that was maintained at 37°C and gassed with 95% O₂ - 5% CO₂.
The preparation in the organ bath was allowed to equilibrate under resting tension of 1 g. After equilibration period, the solution in the organ bath was replaced with an isotonic solution containing 40 mM KCl to contract the preparation.
(§2) After the contraction induced by KCl had reached plateau, the concentration-response relationship for the test compound was determined by means of cumulative addition.
(§3) The relaxation response of the test compounds was expressed as the percent inhibition of the contraction induced by KCl, and the IC₅₀ value, which is a concentration required for inhibiting the contraction induced by KCl to an extent of 50%, was calculated by the Probit method from the concentration-response curve.

SMILES	pIC50
CC(C)(C)CN=C(NC#N)c1ccccn1 [(2), N-cyano-N'-(2,2-dimethylpropyl)-2-pyridinecarboximidamide]	4.22
CC(N=C(NC#N)c1ccccn1)C(C)(C)C (stereo not shown) [(3), N-cyano-N'-(1,2,2-trimethylpropyl)-2-pyridinecarboximidamide]	4.31
N#CNC(=Nc1ccccc1)c1ccccn1 [(4), N-cyano-N'-phenyl-2-pyridinecarboximidamide]	4.51
COc1ccc(N=C(NC#N)c2ccccn2)cc1 [(5), N-cyano-N'-(4-methoxyphenyl)-2-pyridinecarboximidamide]	4.19
Cc1ccc(CN=C(NC#N)c2ccccn2)cc1 [(6), N-cyano-N'-(4-methylbenzyl)-2-pyridinecarboximidamide]	4.29
N#CNC(=NCc1ccc(Cl)cc1)c1ccccn1 [(7), N-cyano-N'-(4-chlorobenzyl)-2-pyridinecarboximidamide]	4.64
N#CNC(=NCc1ccc(C(F)(F)F)cc1)c1ccccn1 [(8), N-cyano-N'-[4-(trifluoromethyl)benzyl]-2-pyridinecarboximidamide]	4.24
Cc1ccc(CCN=C(NC#N)c2ccccn2)cc1 [(9), N-cyano-N'-[2-(4-methylphenyl)ethyl]-2-pyridinecarboximidamide]	4.14
N#CNC(=NCCc1ccc(Cl)cc1)c1ccccn1 [(10), N-cyano-N'-[2-(4-chlorophenyl)ethyl]-2-pyridinecarboximidamide]	4.40
CC(N=C(NC#N)c1ccccn1)C(O)c1ccccc1 (stereo not shown) [(11), N-cyano-N'-(2-hydroxy-1-methyl-2-phenylethyl)-2-pyridinecarboximidamide]	4.92
N#CNC(=NCc1cccs1)c1ccccn1 [(12), N-cyano-N'-(2-thienylmethyl)-2-pyridinecarboximidamide]	4.62
N#CNC(=NCCCO[N+](=O)[O-])c1cccnc1 [(14), N-cyano-N'-(3-nitroxypropyl)-3-pyridinecarboximidamide]	4.70
CC(C)(C)CCN=C(NC#N)c1cccnc1 [(15), N-cyano-N'-(3,3-dimethylbutyl)-3-pyridinecarboximidamide]	4.02
Cc1ccc(N=C(NC#N)c2cccnc2)cc1 [(16), N-cyano-N'-(4-methylphenyl)-3-pyridinecarboximidamide]	4.77
Cc1ccc(CN=C(NC#N)c2cccnc2)cc1 [(18), N-cyano-N'-(4-methylbenzyl)-3-pyridinecarboximidamide]	4.66
COc1ccc(CN=C(NC#N)c2cccnc2)cc1 [(19), N-cyano-N'-(4-methoxybenzyl)-3-pyridinecarboximidamide]	4.43
N#CNC(=NCc1ccc(C(F)(F)F)cc1)c1cccnc1 [(21), N-cyano-N'-[4-(trifluoromethyl)benzyl]-3-pyridinecarboximidamide]	4.15

SMILES	pIC50
N#CNC(=NCc1ccc(Cl)cc1)c1cccnc1 [(22), N-cyano-N'-(4-chlorobenzyl)-3-pyridinecarboximidamide]	4.66
N#CNC(=NCc1ccc([N+](=O)[O-])cc1)c1cccnc1 [(23), N-cyano-N'-(4-nitrobenzyl)-3-pyridinecarboximidamide]	4.01
N#CNC(=NCc1ccc(Cl)c(Cl)c1)c1cccnc1 [(24), N-cyano-N'-(3,4-dichlorobenzyl)-3-pyridinecarboximidamide]	4.68
N#CNC(=NCc1cc(C(F)(F)F)cc(C(F)(F)F)c1)c1cccnc1 [(25), N-cyano-N'-[3,5-bis(trifluoromethyl)benzyl]-3-pyridinecarboximidamide]	4.62
N#CNC(=NCc1cccc(OCc2ccccc2)c1)c1cccnc1 [(26), N-cyano-N'-(3-benzyloxybenzyl)-3-pyridinecarboximidamide]	4.64
COc1ccccc1CCN=C(NC#N)c1cccnc1 [(28), N-cyano-N'-[2-(2-methoxyphenyl)ethyl]-3-pyridinecarboximidamide]	4.15
N#CNC(=NCCc1ccc(Cl)cc1)c1cccnc1 [(30), N-cyano-N'-[2-(4-chlorophenyl)ethyl]-3-pyridinecarboximidamide]	4.37
N#CNC(=NCCc1ccc(NCc2ccccc2)cc1)c1cccnc1 [(31), N-cyano-N'-[2-(4-benzylaminophenyl)ethyl]-3-pyridinecarboximidamide]	4.80
N#CNC(=NCC(O[N+](=O)[O-])c1ccc([N+](=O)[O-])cc1)c1cccnc1 (stereo not shown) [(32), N-cyano-N'-[2-(4-nitrophenyl)-2-nitroxyethyl]-3-pyridinecarboximidamide]	4.11
N#CNC(=NCCCc1ccccc1)c1cccnc1 [(33), N-cyano-N'-(3-phenylpropyl)-3-pyridinecarboximidamide]	4.02
N#CNC(=NC(c1ccccc1)c1ccccc1)c1cccnc1 [(34), N-cyano-N'-diphenylmethyl-3-pyridinecarboximidamide]	4.42
N#CNC(=NC(Cc1ccccc1)c1ccccc1)c1cccnc1 (stereo not shown) [(35), N-cyano-N'-(1,2-diphenylethyl)-3-pyridinecarboximidamide]	4.74
N#CNC(=NCC(c1ccccc1)c1ccccc1)c1cccnc1 [(36), N-cyano-N'-(2,2-diphenylethyl)-3-pyridinecarboximidamide]	4.80
N#CNC(=NCC(O[N+](=O)[O-])c1ccc([N+](=O)[O-])cc1)c1ccncc1 (stereo not shown) [(50), N-cyano-N'-[2-(4-nitrophenyl)-2-nitroxyethyl]-4-pyridinecarboximidamide]	4.85
CC(N=C(NC#N)c1ccncc1)C(O[N+](=O)[O-])c1ccc([N+](=O)[O-])cc1 (stereo not shown) [(51), N-cyano-N'-[1-methyl-2-(4-nitrophenyl)-2-nitroxyethyl]-4-pyridinecarboximidamide]	4.89
N#CN=C(N)c1cccnc1 [N-cyano-3-pyridine-carboxyimidamide, reference compound]	1.40

Second part, the compound after the results:

pIC50	SMILES
4.55	N#CNC(=NCCC(c1ccccc1)c1ccccc1)c1cccnc1 [(37), N-cyano-N'-(3,3-diphenylpropyl)-3-pyridinecarboximidamide]
4.32	N#CNC(=NCCc1ccc(OCc2ccccc2)c(OCc2ccccc2)c1)c1cccnc1 [(39), N-cyano-N'-[2-(3,4-dibenzyloxyphenyl)ethyl]-3-pyridinecarboximidamide]
4.40	COc1ccc(NC(=NC#N)c2cccnc2)c(OC)n1 [(40), N-cyano-N'-3-(2,6-dimethoxypyridine)-3-pyridinecarboximidamide]
4.70	N#CNC(=NCCCO[N+](=O)[O-])c1ccncc1 [(42), N-cyano-N'-(3-nitroxypropyl)-4-pyridinecarboximidamide]
4.28	N#CNC(=Nc1ccccc1)c1ccncc1 [(43), N-cyano-N'-phenyl-4-pyridinecarboximidamide]
4.72	N#CNC(=NCc1ccc(Cl)c(Cl)c1)c1ccncc1 [(44), N-cyano-N'-(3,4-dichlorobenzyl)-4-pyridinecarboximidamide]
4.31	CSc1ccc(CN=C(NC#N)c2ccncc2)cc1 [(45), N-cyano-N'-(4-methylthiobenzyl)-4-pyridinecarboximidamide]
4.52	N#CNC(=NCc1cccc(OCc2ccccc2)c1)c1ccncc1 [(46), N-cyano-N'-(3-benzyloxybenzyl)-4-pyridinecarboximidamide]
4.40	N#CNC(=NCCc1ccc(Cl)cc1)c1ccncc1 [(47), N-cyano-N'-[2-(4-chlorophenyl)ethyl]-4-pyridinecarboximidamide]
4.14	COc1ccccc1CCN=C(NC#N)c1ccncc1 [(48), N-cyano-N'-[2-(2-methoxyphenyl)ethyl]-4-pyridinecarboximidamide]
4.21	N#CNC(=NCCSc1ccccc1)c1ccncc1 [(49), N-cyano-N'-(2-phenylthioethyl)-4-pyridinecarboximidamide]
4.96	N#CN=C(NCCO[N+](=O)[O-])c1ccc(Cl)nc1 [(52), N-cyano-N'-(2-nitroxyethyl)-3-(6-chloropyridine)carboximidamide]
4.11	N#CN=C(NCCc1ccccc1)c1ccc(Cl)nc1 [(53), N-cyano-N'-(2-phenylethyl)-3-(6-chloropyridine)carboximidamide]
4.11	CN(C)c1ccc(CN=C(NC#N)c2cccnc2)cc1 [Compound (20), N-cyano-N'-(4-dimethylaminobenzyl)-3-pyridinecarboximidamide]
4.17	N#CNC(=NCC(OCc1ccccc1)c1ccccc1)c1cccnc1 (stereo not shown) [Compound (38), N-cyano-N'-(2-benzyloxy-2-phenylethyl)-3-pyridinecarboximidamide]
3.74	N#CN=C(N)c1ccncc1 [N-cyano-4-pyridine-carboxyimidamide, reference compound]

system: isolated rat aortae; assay: Vasorelaxing effect on the isolated rat aortae (Referential Example 2)-1); conditions: inhibition of contraction induced by 40 mM KCl, read-out: IC₅₀ Value
Experimental: as §1
Thoracic aortae obtained from male Wistar rats (weighing 250-350 g) were cut into ring segments about 3 mm long. The ring preparation was placed in an organ bath filled with 10 ml of Krebs-Ringer solution which was maintained at 37°C and gassed with 95% O₂ - 5% CO₂.
The preparation in the organ bath was allowed to equilibrate under resting tension 1 g. After equilibration period, the solution in the organ bath was replaced with an isotonic solution containing 40 mM KCl to contract the preparation.
as §2, §3

pIC50	SMILES
5.21	N#CNC(=NCCc1ccccc1)c1cnc2ccccc2c1 [(60), N-cyano-N′-(2-phenylethyl)-3-quinolinecarboximidamide]
4.28	N#CNC(=NCCO[N+](=O)[O-])c1cnccn1 [(61), N-cyano-N′-(2-nitroxyethyl)pyrazinecarboximidamide]
4.74	N#CNC(=NCCc1ccccc1)c1ccco1 [(63), N-cyano-N′-(2-phenylethyl)-2-furancarboximidamide]
